In US20130344053A1, “Methods of Modifying Insulin Signaling Using Biliverdin Reductase (BVR) and BVR Derived Peptides” (University of Rochester, priority 2010, published 2013):

How the values were obtained:
[1] = system: human epithelial kidney (HEK) cells; experiment: Insulin-dependent glucose uptake in HEK cells; type: cell-based; details: myristoylated peptide 2 h, then insulin 100 nM 10 min
Method: (§1) FIGS. 15A-B show the effect of hBVR-based peptides on IGF-dependent glucose uptake in rat smooth muscle cells (PAC1) (FIG. 15A) and insulin-dependent glucose uptake in human epithelial kidney (HEK) cells (FIG. 15B). Cells were treated as described for FIG. 14 and glucose uptake was measured as described infra.
(§2) The therapeutic utility of various BVR peptides with regard to their ability to modify insulin and insulin growth factor (IGF) mediated cellular glucose uptake was evaluated. Human embryonic kidney cells (HEK293) or rat aortic smooth muscle cells (PAC) were starved in low glucose serum-depleted DMEM for twenty hours prior to transfer to PBS containing CaCl2, MgCl2. After two hours, myristoylated peptides were added to the medium for two additional hours. Thereafter, IGF-1 (50 ng/ml) or insulin (100 nM) was added (10 min) and glucose uptake was tested for three minutes in the presence of methyl-D-glucose,3-O-[methyl-3H]. Subsequently, cells were washed three times in cold PBS and solubilized in NaOH (0.05 mM). Aliquots were measured for radioactivity. Non-specific binding or diffusion was tested by addition of 300 mM glucose to the cells. This value was deducted from the total counts (on the average <20%) and results were normalized for protein concentration.

[2] = Blood glucose levels after tail vein injection; type: in vivo; details: Sprague Dawley rats, 11 μg/g body weight, measured at 20, 40, 60, 100 min
Method: FIG. 16 is a graph illustrating the blood glucose levels measured over time course following tail vein injection to Sprague Dawley rats of the KKRILHC (SEQ ID NO: 60) peptide in solution (11 μg/g body weight) or a vehicle control solution.
In an experiment designed to evaluate the ability of the C-terminal KKRILHC BVR peptide fragment (SEQ ID NO: 60) to modulate insulin signaling and blood glucose levels, Sprague Dawley rats were administered, via tail vein injection, the KKRILHC peptide (SEQ ID NO: 60) in solution (11 μg/g body weight) or a vehicle control solution. […] This increase in blood glucose levels was at 20, 40, and 60 minutes following administration, gradually decreasing over the 100 minute time course of assessment.

[3] = system: rat smooth muscle cells (PAC1); experiment: Glucose uptake in PAC1 cells (IGF-dependent); type: cell-based; details: myristoylated peptide 2 h, then IGF-1 50 ng/ml 10 min
Method: Glucose uptake was tested as described infra. Cells were starved in low glucose serum-depleted DMEM for 20 hours prior to transfer to PBS containing CaCl2, MgCl2. After 2 hrs myristoylated peptides were added to the medium for 2 hours. Thereafter, IGF-1 (50 ng/ml) or insulin (100 nM) was added (10 min) and glucose uptake was tested for 3 min in the presence of methyl-D-glucose,3-O-[methyl-3H]. Subsequently cells were washed 3 times in cold PBS and solubilized in NaOH (0.05 mM). Aliquots were measured for radioactivity. Non-specific binding or diffusion were tested by addition of 300 mM glucose to the cells. This value was deducted from the total counts (on the average <20%) and results were normalized for protein concentration.
as §1, §2

KKRILHC (Biliverdin reductase derived peptide) [hBVR peptide, amino acids 275-281 of BVR]
insulin mediated cellular glucose uptake in HEK cells [1]: antagonizing insulin mediated cellular glucose uptake
blood glucose levels compared to vehicle controls [2]: immediate increase in the blood glucose levels
IGF-mediated cellular glucose uptake in PAC1 cells [3]: inhibit IGF-mediated cellular glucose uptake
